Data on 1 compound can be found in patent US9884863B2, “STAT3 inhibitor” (Board of Regents, The University of Texas System, priority 2013, dated 2018).

Common to all, as to assay type: cell-based, human
Assay [1] deals with STAT family, STAT3-dependent genes and JAKs in MDA-MB-231 cells. Kind of assay: Western blot analysis, MDA-MB-231 cells. Particulars: 24 h; Example 3 numbering. As for the experimental part: Blocking STAT3 signaling in many different tumor cells leads to induce growth arrest and apoptosis (Turkson, J. et al., 2000; Bromberg, J., 2002; Zhang, X. et al., 2012).
Western Blot Analysis. Protein levels were determined by Western blot using the previously described methods (Shen, Q. et al., 2008). Total cell lysates were prepared from MDA-MB-231 cells. Protein concentrations were measured using the BCA Protein Assay Reagent (Pierce, Rockford, Ill., USA). Equal amounts of total cellular protein extract (40 μg) were resuspended in denaturing sample loading buffer (0.5 M Tris-HCl, pH 6.8, 10% SDS, 0.1% bromophenol blue, and 20% glycerol), separated by electrophoresis on a 10% polyacrylamide SDS-PAGE gel and then electrophoretically transferred to a nitrocellulose membrane (Thermo Scientific, Ill., USA) at 100 Volts for 1 h at 4° C. The membrane was then incubated in a blocking solution containing 5% non-fat milk and 1% Tween 20 in TBS for 1 h. The membrane was then incubated with antibodies specific for: phospho-STAT3-pY705 (1:3000, Epitomics, #2236-1), STAT3 (1:2000, Cell Signaling, #4904), Caspase-3-cleaved (1:2000, Epitomics, #1476-1), Cyclin D1 (1:10000, Epitomics, #2261-1) and β-actin (1:10000, Sigma, clone AC-15). An anti-rabbit or anti-mouse secondary antibody (Amersham, Piscataway, N.J.) was used at 1:4000 dilution. The Western blotted bands were visualized using ECL procedure according to the manufacturer's instructions (Amersham).

A further assay deals with MDA-MB-231. The assay is described as follows: MTS cell proliferation assay, MDA-MB-231. Particulars: Homo sapiens, MDA-MB-231, 72 h, read-out: IC50 MDA-MB-231 (Table 4). Put shortly: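 Cells are exposed to DMSO or STAT3 inhibitors at 0.01-100 μM for 72 h, or at 1, 5 and 10 μM. Proliferation is read by MTS absorbance at 550 or 560 nm after 1 h at 37 °C. Each concentration is run in quadruplicate wells.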

In the next assay the test system is Panc-1. Kind of assay: MTS cell proliferation assay, Panc-1. The following applies: Homo sapiens, PANC-1, 72 h, read-out: IC50 Panc-1 (Table 4). Put shortly: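 Cells seeded at 2×10^3 cells/well and exposed 72 h to DMSO or 0.01–100 μM STAT3 inhibitor, quadruplicate wells per concentration. Proliferation read by MTS reduction, OD 550 nm after 1 h at 37 °C.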
Assay [2] deals with STAT3 promoter activity in MDA-MB-231 cells. Kind of assay: Transient transfection and dual luciferase reporter assay (pSTAT3-Luc). Particulars: 24 h. As for the experimental part:
MDA-MB-231 cells were pre-treated with niclosamide or 11 at different concentrations for 24 h. The STAT3 promoter activity in MDA-MB-231 cells was determined after transient transfecting with pSTAT3-Luc vector.
Transient Transfection and Dual Luciferase Reporter Assays. MBA-MB-231 cells were seeded in 24-well plate at a density of 5×10^4 cells/well in RPMI-1640 medium containing 10% FBS and 1% penicillin-streptomycin. Transient transfections were performed 4 h after plating, using the method described previously (Rees, D. C. et al., 2004; Shen, Q. et al., 2008). Total amount of DNA for transfections was 0.5 μg/well, including pSTAT3-Luc (95%, obtained from Panomics, Cat# LR0077) and internal control vector renilla (5%, from Promega, Madison, Wis., USA). 5 h after transfection, the cells were treated with compound […] for 24 h, then reporter activity was evaluated using dual luciferase reporter assay kit (Promega, Madison, Wis., USA) on an Omega™ Microplate Luminometer (BMG LABTECH Inc., NC, USA). Relative luciferase units were the ratio of the absolute activity of firefly luciferase to that of renilla luciferase. Experiments were conducted with triplicates and results are representatives of at least 3 independent experiments.

The structures appear in SMILES notation.

As for `O=C(Nc1ccc([N+](=O)[O-])cc1Cl)c1cc(Cl)ccc1O` [niclosamide, reference compound], the “phosphorylated STAT3 at Tyr-705 (Example 3)” value in assay [1] is “suppressed”. The “total STAT3 level (Example 3)” value in assay [1] was “reduced”. Besides, the IC50 was found to be 790 nM in the assay with MDA-MB-231 and 1730 nM in the assay with Panc-1. The “STAT3 promoter activity at 20 μM, in words” value in assay [2] is listed as “suppressed”.
